According to PubChem BioAssay (NCI):
Several values for one entry are separate records, joined by “and”; a condition that tells them apart may be missing. Equal entries are not always repeated.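 Five compound concentrations were applied to cells in 96-well plates for 48 hours; endpoints were derived by simple linear interpolation of the resulting dose-response curve. GI50: concentration for 50% inhibition of growth. At the TGI there is no net growth.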

Each compound was assayed on HL-60(TB) leukemia (assay: DTP human tumour cell line panel, 48 h).

Structure (SMILES)	GI50	TGI
COc1cc2nc(C)nc(N[C@H](C)c3cc(N)cc(C(F)(F)F)c3)c2cc1O[C@H]1CCOC1	14 µM	39.2 µM
O=C1c2ccccc2C(=O)c2sc(Nc3cccc(Cl)c3)nc21	–	0.444 µM
Fc1ccc(Nc2ncnc3ccc(-c4cnc5[nH]ccc5c4)cc23)cc1Cl	7.76 µM	40.1 µM
CN(C)CCCNC1=C(Cl)C(=O)c2ccccc2C1=O	2.54 µM	5.84 µM
O=C(Nc1ccc(F)cc1F)c1cc(I)ccc1O	3.08 µM	9.13 µM
CCOc1ccccc1-n1c(CN2CCN(C(=O)COc3ccc(CNCCCCCCN4C5CCCC4CC(OC(=O)Nc4cc(C)ccc4OC)C5)cc3)CC2)nc2ccccc2c1=O (configuration not stated)	0.64 µM	1.35 µM
CC1(C)COC(c2ccc(C(F)(F)F)cc2C(O)c2ccc3ccccc3c2)=N1 (configuration not stated)	> 10 µM	> 100 µM
COc1ccc(NC(=O)c2cc(OC)cc(OC)c2)cc1	–	39.1 µM
CC1(C)OC(=O)C(=Cc2ccc(O)cc2)C(=O)O1	–	> 100 µM
COc1ccc(/C=C\c2cc(OC)c3c(c2)OCO3)c(O)c1O	–	7.72 µM
CC[C@@]12CCCN3CC[C@]4(c5cccc(OC)c5N(C(C)=O)[C@@H]4CC1)[C@H]32	–	44.6 µM

What follows are compounds tested on SK-OV-3 ovarian (assay: DTP human tumour cell line panel, 48 h).

Structure (SMILES)	GI50	TGI
O=C(CN1CCN(c2cc3c(cc2F)c(=O)c(C(=O)N/N=C/c2ccccc2O)cn3C2CC2)CC1)N/N=C\c1ccccc1O	0.763 µM	> 100 µM
C=C(CNCCO)[C@@H]1CC[C@]2(CO)CC[C@]3(C)[C@H](CC[C@@H]4[C@@]5(C)CCC(N)C(C)(C)[C@@H]5CC[C@]43C)[C@@H]12 (some centres not stated)	11.1 µM	23.3 µM
Nc1cc2nc3ccccc3sc-2cc1=O	13.1 µM	53.5 µM
CCN(CC)CC(C(=O)Nc1c(C)cccc1C)/C(C)=N\NC(=O)C[N+](C)(C)C (configuration not stated)	–	> 100 µM
CC1=C(C(=O)Nc2ccccc2C)C(c2ccco2)C(C(=O)Nc2ccccc2C)=C(C)N1C	–	> 100 µM
COc1cc2nc(-c3ccc(C(F)(F)F)cc3)cc(OCCCN3CCC(O)CC3)c2cc1OC	10.6 µM	25.3 µM
CC(=O)OC(C)C(=O)C1c2cccc(O)c2C(=O)c2c(O)cc(C)cc21 (configuration not stated)	–	1.81 µM
CC(=O)C(CN(C(C)C)C(C)C)C(c1ccccc1)c1c(O)c2ccccc2oc1=O (configuration not stated)	–	> 100 µM
O=C1NNC(=O)c2ccccc2SSc2ccccc2C(=O)NNC(=O)c2ccccc2SSc2ccccc21	> 100 µM	50 µM and > 100 µM
NC(CCc1nc(-c2ccc(Cl)cc2)cs1)C(=O)O (configuration not stated)	–	> 100 µM
COc1ccc(-n2/c(=N/C(=S)N(C)C)ss/c2=N\C(=S)N(C)C)cc1	–	> 100 µM
COc1cc(C(=O)/C=C/c2sc(Cl)nc2Cl)cc(OC)c1OC	6.43 µM	19.8 µM
COc1cc2nc(C)nc(N[C@H](C)c3cc(N)cc(C(F)(F)F)c3)c2cc1O[C@H]1CCOC1	14.2 µM	28.3 µM
O=C1c2ccccc2C(=O)c2sc(Nc3cccc(Cl)c3)nc21	–	10.9 µM
Fc1ccc(Nc2ncnc3ccc(-c4cnc5[nH]ccc5c4)cc23)cc1Cl	4.62 µM	32.6 µM
CN(C)CCCNC1=C(Cl)C(=O)c2ccccc2C1=O	15 µM	28.3 µM
O=C(Nc1ccc(F)cc1F)c1cc(I)ccc1O	1.12 µM	4.27 µM
CCOc1ccccc1-n1c(CN2CCN(C(=O)COc3ccc(CNCCCCCCN4C5CCCC4CC(OC(=O)Nc4cc(C)ccc4OC)C5)cc3)CC2)nc2ccccc2c1=O (configuration not stated)	1.89 µM	3.45 µM
CC1(C)COC(c2ccc(C(F)(F)F)cc2C(O)c2ccc3ccccc3c2)=N1 (configuration not stated)	> 100 µM	> 100 µM
COc1ccc(NC(=O)c2cc(OC)cc(OC)c2)cc1	–	> 84.8 µM
CC1(C)OC(=O)C(=Cc2ccc(O)cc2)C(=O)O1	–	> 100 µM
COc1ccc(/C=C\c2cc(OC)c3c(c2)OCO3)c(O)c1O	–	> 77 µM
CC[C@@]12CCCN3CC[C@]4(c5cccc(OC)c5N(C(C)=O)[C@@H]4CC1)[C@H]32	–	> 100 µM

What follows are compounds tested on OVCAR-4 ovarian (assay: DTP human tumour cell line panel, 48 h).

Structure (SMILES)	GI50	TGI
O=C(CN1CCN(c2cc3c(cc2F)c(=O)c(C(=O)N/N=C/c2ccccc2O)cn3C2CC2)CC1)N/N=C\c1ccccc1O	0.204 µM	> 100 µM
C=C(CNCCO)[C@@H]1CC[C@]2(CO)CC[C@]3(C)[C@H](CC[C@@H]4[C@@]5(C)CCC(N)C(C)(C)[C@@H]5CC[C@]43C)[C@@H]12 (some centres not stated)	3.42 µM	13.6 µM
Nc1cc2nc3ccccc3sc-2cc1=O	2.15 µM	6.21 µM
CCN(CC)CC(C(=O)Nc1c(C)cccc1C)/C(C)=N\NC(=O)C[N+](C)(C)C (configuration not stated)	–	> 100 µM
CC1=C(C(=O)Nc2ccccc2C)C(c2ccco2)C(C(=O)Nc2ccccc2C)=C(C)N1C	–	> 100 µM
COc1cc2nc(-c3ccc(C(F)(F)F)cc3)cc(OCCCN3CCC(O)CC3)c2cc1OC	9.14 µM	22 µM
CC(=O)OC(C)C(=O)C1c2cccc(O)c2C(=O)c2c(O)cc(C)cc21 (configuration not stated)	–	1.56 µM
CC(=O)C(CN(C(C)C)C(C)C)C(c1ccccc1)c1c(O)c2ccccc2oc1=O (configuration not stated)	–	> 100 µM
O=C1NNC(=O)c2ccccc2SSc2ccccc2C(=O)NNC(=O)c2ccccc2SSc2ccccc21	–	50 µM and > 100 µM
NC(CCc1nc(-c2ccc(Cl)cc2)cs1)C(=O)O (configuration not stated)	–	> 100 µM
COc1ccc(-n2/c(=N/C(=S)N(C)C)ss/c2=N\C(=S)N(C)C)cc1	–	18.5 µM
COc1cc(C(=O)/C=C/c2sc(Cl)nc2Cl)cc(OC)c1OC	1.77 µM	3.19 µM
COc1cc2nc(C)nc(N[C@H](C)c3cc(N)cc(C(F)(F)F)c3)c2cc1O[C@H]1CCOC1	17 µM	55.1 µM
O=C1c2ccccc2C(=O)c2sc(Nc3cccc(Cl)c3)nc21	–	2.72 µM
Fc1ccc(Nc2ncnc3ccc(-c4cnc5[nH]ccc5c4)cc23)cc1Cl	1.51 µM	3.92 µM
CN(C)CCCNC1=C(Cl)C(=O)c2ccccc2C1=O	1.62 µM	2.98 µM
O=C(Nc1ccc(F)cc1F)c1cc(I)ccc1O	2.49 µM	–
CCOc1ccccc1-n1c(CN2CCN(C(=O)COc3ccc(CNCCCCCCN4C5CCCC4CC(OC(=O)Nc4cc(C)ccc4OC)C5)cc3)CC2)nc2ccccc2c1=O (configuration not stated)	1.75 µM	3.34 µM
CC1(C)COC(c2ccc(C(F)(F)F)cc2C(O)c2ccc3ccccc3c2)=N1 (configuration not stated)	> 100 µM	> 100 µM
COc1ccc(NC(=O)c2cc(OC)cc(OC)c2)cc1	–	> 100 µM
CC1(C)OC(=O)C(=Cc2ccc(O)cc2)C(=O)O1	–	> 100 µM
COc1ccc(/C=C\c2cc(OC)c3c(c2)OCO3)c(O)c1O	–	20.6 µM
CC[C@@]12CCCN3CC[C@]4(c5cccc(OC)c5N(C(C)=O)[C@@H]4CC1)[C@H]32	–	> 100 µM

The compounds below were run on A549 NSCLC (assay: DTP human tumour cell line panel, 48 h).

Structure (SMILES)	GI50	TGI
O=C(CN1CCN(c2cc3c(cc2F)c(=O)c(C(=O)N/N=C/c2ccccc2O)cn3C2CC2)CC1)N/N=C\c1ccccc1O	0.569 µM	> 100 µM
